Key:
HeLa cells [1] = assay: Cancer cell imaging for HeLa cells (TTE, TFE, fl-TFE); type: cell-based, human; details: 10 μM; TTE in HeLa and A549, TFE and fl-TFE only in HeLa
Description: Cell Culture. HeLa cells were cultured in MEM containing 10% FBS and 1% antibiotics (100 units/mL penicillin and 100 µg/mL streptomycin) in a 5% CO2 humidity incubator at 37° C. Cell Imaging. Lung cancer cell A549 were cultured in DMEM containing 10% FBS and antibiotics (100 units/mL penicillin and 100 µg/mL streptomycin) in a 5% CO2 humidity incubator at 37° C. Two different kind of cells were grown overnight on a 35 mm petri dish with a cover slip. The live cells were incubated with 10 μM of TTE for 15/30 mins, TFE for 30′ and fl-TFE for 30′ and 5 h (the last two have been tested only in HeLa cells). In a typical experiment, 2 μL of a 10 mM stock solution of TTE in DMSO were diluted to 1 mL with cell culture medium, followed by further dilution to desired concentration. The cells were imaged under a fluorescent microscope (BX41 Microscope) using same excitation and emission filters: excitation filter=330-385 nm, dichroic mirror=420 nm, and emission filter=400 nm long pass.
The HeLa cells were grown overnight on a 35 mm petri dish with a cover slip. The live cells were incubated with 10 μM of TTE for 30 mins, which are shown in FIG. 17A-B. The HeLa cells were incubated with 50 μM oleic acid for 6 hrs and then were co-stained by 10 μM TTE and 1 μg/mL for 15 mins.

MCF-7 cells = assay: Lysosomal imaging in MCF-7 cells, co-staining with LTR; type: cell-based; details: MCF-7, 50 nm TMX 24 hrs, matched with LTR
Description: The behavior of TPE-TMX in cellular settings was studied as compared to TMX. MCF-7 cells were incubated with 2 μM TPE-TMX and […] TMX for 24 hrs, respectively. The cells were then washed and directly observed under the microscope without fixation. […] However, the exact intracellular location of TMX cannot be confirmed by fluorescent microscopy because its emission wavelength is not in the range of the visible spectrum. Therefore, a series of commercial fluorescent markers were used to image drug delivery of TMX. […] On the other hand, TPE-TMX, without any aid of fluorescent dye, can be successfully monitored in the cells thanks to its intense blue emission. The controls display no emission under UV irradiation.
To further confirm the subcellular distribution of TPE-TMX, LTR was also used to co-stain MCF-7 cells with TPE-TMX. […] As expected, TPE-TMX is a specific fluorescent dye to visualize lysosomal organelle structures as well as monitor the drug release.

lysosome = assay: Lysosome imaging in HeLa cells, co-staining with LTR; type: cell-based, human; details: HeLa cells
Description: Then, AIE-LysoY was applied to lysosome imaging and its lysosome-targeting performance was assessed by fluorescence microscope. HeLa cells were stained with 10 μM of AIE-LysoY for 10 min, followed by washing away the abundant molecules of AIE-LysoY and incubation with 50 nM of LTR for 30 min. […] The fluorescence of AIE-LysoY overlaps perfectly with that of LTR, indicating the lysosome-targeting of AIE-LysoY.
Quantitative analysis of the degree of overlapping of these two fluorescence signals by Pearson's coefficient (Rr), which depicts the degree of linear dependence between two variables, gives an overlapping coefficient of 0.90. The high Rr value proves that AIE-LysoY is a lysosome-selective probe. […] Changing the staining time from 10 min to 60 min, the specificity to lysosome is retained, as well as the emission contrast.
To design the lysosome-specific bioprobe, a molecular engineering approach was employed. The precursor of AIE-LysoY, FAS-Br, and two morpholine-functionalized AIEgens, TPE-2Mor and Nred-mor were prepared and applied to cell imaging. The molecular structures of TPE-2mor and Nred-mor are shown below: […]

HeLa cells [2] = assay: MTT cell viability assay, HeLa cells; type: cell-based, human; details: HeLa, different concentrations, 24 hrs
Description: Hela cells were incubated with different concentrations of Naph-IQ in culture medium for 24 hours.
Before employing AIE-LysoY as a fluorescent visualizer of lysosome, a 3-(4,5-dimethyl-2-thiazolyl)-2,5-diphenyltetrazolium bromide (MTT) cell proliferation assay was first conducted to evaluate its cytotoxicity. […] The good biocompatibility of AIE-LysoY enables its application as a fluorescent tracer to follow the autophagic process of lysosome.

PC-9 cells = assay: Cell imaging, PC-9 cells; type: cell-based, human; details: PC-9, 200 nM DPA-IQ, 10 min
Description: (§1) The PC-9, HepG2, and HCC827 cells were grown overnight on a 35 mm petri dish with a cover slip. The live cells were incubated with 200 nM of TPE-IQ-2O for 20 and 10 mins. In all the experiments, the cancer cells are fluorescent in solely staining.
(§2) HepG2 cells (human hepatocarcinoma cell line), PC-9 cells (human lung adenocarcinoma cell line), Hela cells (human cervical carcinoma cell line), and LX2 cells (normal cell, human hepatic stellate cell line) were stained with 200 nM DPA-IQ for 10 min. Images were taken under the same equipment settings. Scale bar: 30 μm. Excitation wavelength: 400-440 nm.

HepG2 cells = assay: Cell imaging, HepG2 cells; type: cell-based, human; details: HepG2, 200 nM DPA-IQ, 10 min
Description: as §1, §2

HeLa cells [3] = assay: Cell imaging under fluorescent microscope, HeLa cells; type: cell-based, human; details: Hela, 200 nM DPA-IQ, 10 min
Description: Cell culture: HeLa cells were cultured in the MEM containing 10% FBS and 1% antibiotics (100 units/mL penicillin and 100 µg/mL streptomycin) in a 5% CO2 humidity incubator at 37° C. COS-7, MDA-MB-231, MCF-7, and MDCK-II cells were culture in the DMEM containing 10% FBS and antibiotics (100 units/mL penicillin and 100 µg/mL streptomycin) in a 5% CO2 humidity incubator at 37° C.
Cell imaging: two different kind of cells were grown overnight on a 35 mm petri dish with a cover slip. The live cells were incubated with 200 nM of TPE-IQ-2O for 1, 5, 10, and 20 mins. In a typical experiment, 2 μL of a 10 mM stock solution of TPE-IQ-2O in DMSO was diluted to 2 mL with cell culture medium, followed by further dilution to desired concentration. The cells were imaged under a fluorescent microscope (BX41 Microscope) using the same excitation and emission filters: excitation filter=400-440 nm, dichroic mirror=455 nm, and emission filter=465 nm long pass.
Two different kinds of cells were grown overnight on a 35 mm petri dish with a cover slip. The live cells were incubated with 200 nM of TPE-IQ-20 for 20, 10, 5, and 1 mins. The Hela cells were stained by TPE-IQ-2O; the COS-7 cells were stained by TPE-IQ-2O; the Hela cells and COS-7 cells were co-cultured and stained together by TPE-IQ-2O. Condition: 200 nM (Filter: both close; Channel 5; EX: 400-440 nm; Exposure time: bright field: 1000 ms Fluorescence: 1000 ms.
Two different kinds of cells were grown overnight on a 35 mm petri dish with a cover slip. The live cells were incubated with 200 nM of TPE-IQ-2O for 10 mins. The Hela cells were stained by TPE-IQ-2O; the MDCKII cells were stained by TPE-IQ-2O; the MDA-MB-231 cells and COS-7 cells were co-cultured and stained together by TPE-IQ-2O. Condition: 200 nM 10 mins (Filter: both close; Channel 5; EX: 400-440 nm; Exposure time: bright field: 1000 ms Fluorescence: 1000 ms.
as §2

mitochondria = assay: Co-staining with commercial organelle trackers in HeLa cells (mitochondria staining); type: cell-based, human
Description: The HeLa cells were grown overnight on a 35 mm petri dish with a cover slip. Then the HeLa cells were stained with 200 nM TPE-IQ-2O and Mito-tracker red (50 nM)/Lyso-tracker red (50 nM)/DAPI (500 nM) for 20 mins.
The DMSO solution of DPA-IQ was almost non-emissive while the aggregation state powder of this material emits strong green luminescence upon the UV excitation.
The commercially available MitoTracker Red FM is co-stained as a control together with Naph-IQ.

LX2 cells = assay: Cell imaging, LX2 normal cells; type: cell-based, human; details: LX2, 200 nM DPA-IQ, 10 min
Description: The LX2 cells were grown overnight on a 35 mm petri dish with a cover slip. The live cells were incubated with 200 nM of TPE-IQ-2O for 20 and 10 mins.
as §2

SMILES | Intracellular localisation of control probes (lysosome) | Cytotoxicity by MTT assay (HeLa cells [2]) | Mitochondrial staining compared with MitoTracker Red FM (mitochondria) | also measured
c1cc2c3ccoc3c3c4occc4c4ccoc4c3c2o1 [fl-TFE, Tetrafuro[2,3-a:3′,2′-c:2″,3″-f:3″′,2″′-h]-naphthalene] |  |  |  | Ability to enter cells as bioprobe (HeLa cells [1]): Only TTE has revealed to be useful for this purpose
CC/C(=C(\c1ccccc1)c1ccc(OCCN(C)C)cc1)c1ccccc1 [TMX, Tamoxifen, reference compound] |  |  |  | Subcellular distribution (MCF-7 cells): possible to be localized on the lysosomes
CN(C)c1ccc(/C=C(\C#N)c2ccc(-c3cc[n+](CCCCCCN4CCOCC4)cc3)cc2)cc1 [Nred-mor] | selectively accumulates in the mitochondria |  |  | 
CCC[n+]1cc2ccc(N(c3ccccc3)c3ccccc3)cc2c(-c2ccccc2)c1-c1ccccc1 [DPA-IQ] |  | low cytotoxicity | can stain the mitochondrial organelle as good as the commercially available MitoTracker Red FM | Emission of stained cells (PC-9 cells): strong emission; Emission of stained cells (HepG2 cells): strong emission; Emission of stained cells (HeLa cells [3]): strong emission; Emission of stained cells (LX2 cells): faint emission
c1ccc(C(=C(c2ccccc2)c2ccc(CN3CCOCC3)cc2)c2ccc(CN3CCOCC3)cc2)cc1 [TPE-2Mor] | stains all the hydrophobic regions |  |  | 
CCC[n+]1cc2ccc(-c3cccc4c(OC)cccc34)cc2c(-c2ccccc2)c1-c1ccccc1 [Naph-IQ] |  | low cytotoxicity | can stain the mitochondrial organelle as good as MitoTracker Red FM with higher resolution | 
Oc1cc(OCCCCCCBr)ccc1/C=N/N=C1c2ccccc2-c2ccccc21 [FAS-Br, (E)-2-(((9H-fluoren-9-ylidene)hydrazono)methyl)-5-((6-bromohexyl)oxy)phenol] | lights up intracellular lipid droplets and the recticulum structures of mitochondria in HeLa cells rather than lysosomes |  |  | 
CCC[n+]1cc2ccc(-c3ccc(N(c4ccccc4)c4ccccc4)cc3)cc2c(-c2ccccc2)c1-c1ccccc1 [TPA-IQ] |  | low cytotoxicity | can stain the mitochondrial organelle as well as the commercially available MitoTracker Red FM with higher resolution | 
c1coc(C(=C(c2ccco2)c2ccco2)c2ccco2)c1 [TFE, Tetrakis(2-furyl)ethene] |  |  |  | Ability to enter cells as bioprobe (HeLa cells [1]): Only TTE has revealed to be useful for this purpose
